# In patent US10494332B2, “Protein tyrosine phosphatases or SHP2 inhibitors and uses thereof” (Indiana University Research and Technology Corporation, priority 2015, dated 2019):
# pIC50: −log10 of the molar value.
# Biological target: T1, HePTP (Homo sapiens, UniProt P35236)
# T1 sequence (P35236 1-360): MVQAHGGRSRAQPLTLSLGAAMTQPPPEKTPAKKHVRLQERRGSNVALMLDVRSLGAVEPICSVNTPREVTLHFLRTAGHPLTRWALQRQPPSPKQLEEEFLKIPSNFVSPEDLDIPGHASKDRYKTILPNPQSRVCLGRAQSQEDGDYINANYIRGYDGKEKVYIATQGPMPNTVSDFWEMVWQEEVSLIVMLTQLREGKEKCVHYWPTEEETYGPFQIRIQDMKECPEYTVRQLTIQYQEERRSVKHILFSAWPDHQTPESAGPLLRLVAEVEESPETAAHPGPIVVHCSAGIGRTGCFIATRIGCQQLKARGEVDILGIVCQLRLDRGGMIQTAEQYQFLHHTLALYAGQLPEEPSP
# Test: PTP inhibition assay (pNPP)
# Assay type: biochemical
# Details: […]; HePTP
row,SMILES,pIC50
1,O=C(O)C(c1ccc(-c2ccccc2)cc1)S(=O)(=O)O (stereo not shown) [Compound L319-16],4.96

# Biological target: T2, LYP (Homo sapiens, UniProt Q9Y2R2)
# T2 sequence (Q9Y2R2 1-807): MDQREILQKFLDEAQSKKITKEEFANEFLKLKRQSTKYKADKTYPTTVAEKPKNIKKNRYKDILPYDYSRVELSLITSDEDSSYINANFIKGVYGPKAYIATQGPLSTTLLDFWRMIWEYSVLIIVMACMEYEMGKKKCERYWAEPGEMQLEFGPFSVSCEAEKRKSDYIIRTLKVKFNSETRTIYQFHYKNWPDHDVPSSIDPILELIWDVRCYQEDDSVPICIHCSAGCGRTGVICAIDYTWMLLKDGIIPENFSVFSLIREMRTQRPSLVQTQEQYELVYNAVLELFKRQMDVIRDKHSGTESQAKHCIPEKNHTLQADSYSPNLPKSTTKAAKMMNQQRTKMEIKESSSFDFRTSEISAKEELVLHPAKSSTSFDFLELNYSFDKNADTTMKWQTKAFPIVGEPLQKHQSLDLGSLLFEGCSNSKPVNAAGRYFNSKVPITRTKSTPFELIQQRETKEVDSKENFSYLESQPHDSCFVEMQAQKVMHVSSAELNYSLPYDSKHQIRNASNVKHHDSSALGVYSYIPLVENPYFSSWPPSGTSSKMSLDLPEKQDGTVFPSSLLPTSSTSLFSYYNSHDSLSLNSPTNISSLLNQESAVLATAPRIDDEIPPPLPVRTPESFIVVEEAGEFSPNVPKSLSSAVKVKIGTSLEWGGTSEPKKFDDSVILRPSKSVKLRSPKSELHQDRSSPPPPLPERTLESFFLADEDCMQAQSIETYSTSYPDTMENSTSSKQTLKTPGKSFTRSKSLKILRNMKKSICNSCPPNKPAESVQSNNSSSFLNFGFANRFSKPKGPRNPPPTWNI
# Test: PTP inhibition assay (pNPP)
# Assay type: biochemical
# Details: […]; LYP
row,SMILES,pIC50
1,O=C(O)C(c1ccc(-c2ccccc2)cc1)S(=O)(=O)O (stereo not shown) [Compound L319-16],5.28

# Same assay, conditions: pNPP at Km, pH 7.0, 25° C.
row,SMILES,pIC50
1,O=C(Nc1nccs1)C(c1ccccc1)S(=O)(=O)O (stereo not shown) [Compound L319N13],< 4.00
2,O=C(Nc1nc(-c2ccccc2)cs1)C(c1ccccc1)S(=O)(=O)O (stereo not shown) [Compound L319N14],4.82
3,O=C(Nc1nc2c(Cl)cccc2s1)C(c1ccccc1)S(=O)(=O)O (stereo not shown) [Compound L319N15-01],4.66
4,CCOC(=O)c1ccc2nc(NC(=O)C(c3ccccc3)S(=O)(=O)O)sc2c1 (stereo not shown) [Compound L319N15-11],4.55

# Biological target: T3, Laforin (Homo sapiens, UniProt O95278)
# T3 sequence (O95278 1-331): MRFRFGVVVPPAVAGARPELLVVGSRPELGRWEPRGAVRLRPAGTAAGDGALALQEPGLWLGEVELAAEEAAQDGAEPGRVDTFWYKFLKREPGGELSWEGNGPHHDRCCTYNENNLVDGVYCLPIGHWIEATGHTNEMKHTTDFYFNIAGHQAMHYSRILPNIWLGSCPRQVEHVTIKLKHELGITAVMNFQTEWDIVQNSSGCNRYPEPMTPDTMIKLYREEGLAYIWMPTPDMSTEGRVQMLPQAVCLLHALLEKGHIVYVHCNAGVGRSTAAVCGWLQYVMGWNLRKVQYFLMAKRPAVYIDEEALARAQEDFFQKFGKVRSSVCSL
# Test: PTP inhibition assay (pNPP)
# Assay type: biochemical
# Details: pNPP at Km, pH 7.0, 25° C.; read-out: IC50 Laforin
row,SMILES,pIC50
1,O=C(Nc1nccs1)C(c1ccccc1)S(=O)(=O)O (stereo not shown) [Compound L319N13],5.10
2,O=C(Nc1nc(-c2ccccc2)cs1)C(c1ccccc1)S(=O)(=O)O (stereo not shown) [Compound L319N14],5.22
3,O=C(Nc1nc2c(Cl)cccc2s1)C(c1ccccc1)S(=O)(=O)O (stereo not shown) [Compound L319N15-01],5.66
4,CCOC(=O)c1ccc2nc(NC(=O)C(c3ccccc3)S(=O)(=O)O)sc2c1 (stereo not shown) [Compound L319N15-11],5.77

# Biological target: T4, PTP1B (Homo sapiens, UniProt P18031)
# T4 sequence (P18031 1-435): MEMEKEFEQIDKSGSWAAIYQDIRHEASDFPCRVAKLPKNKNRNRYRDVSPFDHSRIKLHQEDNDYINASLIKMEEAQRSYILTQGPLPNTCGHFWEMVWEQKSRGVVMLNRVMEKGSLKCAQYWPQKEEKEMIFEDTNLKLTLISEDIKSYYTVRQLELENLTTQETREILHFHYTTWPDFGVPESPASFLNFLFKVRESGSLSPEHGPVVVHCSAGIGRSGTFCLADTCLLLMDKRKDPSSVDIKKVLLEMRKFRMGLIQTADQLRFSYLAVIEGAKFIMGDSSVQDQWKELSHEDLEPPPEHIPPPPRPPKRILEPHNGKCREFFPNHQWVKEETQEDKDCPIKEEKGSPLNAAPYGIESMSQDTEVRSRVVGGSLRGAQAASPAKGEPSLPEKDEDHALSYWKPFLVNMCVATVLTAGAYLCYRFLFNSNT
# Test: PTP inhibition assay (pNPP)
# Assay type: biochemical
# Details: pNPP at Km, pH 7.0, 25° C.
row,SMILES,pIC50
1,O=C(Nc1nccs1)C(c1ccccc1)S(=O)(=O)O (stereo not shown) [Compound L319N13],< 4.00
2,O=C(Nc1nc(-c2ccccc2)cs1)C(c1ccccc1)S(=O)(=O)O (stereo not shown) [Compound L319N14],3.80
3,O=C(Nc1nc2c(Cl)cccc2s1)C(c1ccccc1)S(=O)(=O)O (stereo not shown) [Compound L319N15-01],4.15

# Biological target: T5, SHP2 (Homo sapiens, UniProt Q06124)
# T5 sequence (Q06124 224-528): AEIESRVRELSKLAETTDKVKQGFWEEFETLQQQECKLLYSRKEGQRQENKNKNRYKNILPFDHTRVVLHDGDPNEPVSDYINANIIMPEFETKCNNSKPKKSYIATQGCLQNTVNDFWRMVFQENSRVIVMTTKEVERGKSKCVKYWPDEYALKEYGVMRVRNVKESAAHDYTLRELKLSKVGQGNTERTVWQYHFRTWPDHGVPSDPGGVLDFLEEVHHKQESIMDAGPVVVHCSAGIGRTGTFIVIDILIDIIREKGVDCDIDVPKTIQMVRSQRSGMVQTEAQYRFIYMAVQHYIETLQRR
# Test: SHP2 phosphatase inhibition assay (pNPP)
# Assay type: biochemical
# Details: […]; SHP2; read-out: IC50 SHP2
row,SMILES,pIC50
1,O=C(O)C(c1ccc(-c2ccccc2)cc1)S(=O)(=O)O (stereo not shown) [Compound L319-16],4.60

# Same assay, conditions: pNPP at Km, pH 7.0, 25° C.; read-out: IC50 SHP2
row,SMILES,pIC50
1,O=C(Nc1nccs1)C(c1ccccc1)S(=O)(=O)O (stereo not shown) [Compound L319N13],< 4.00
2,O=C(Nc1nc(-c2ccccc2)cs1)C(c1ccccc1)S(=O)(=O)O (stereo not shown) [Compound L319N14],4.51
3,O=C(Nc1nc2c(Cl)cccc2s1)C(c1ccccc1)S(=O)(=O)O (stereo not shown) [Compound L319N15-01],4.39
4,CCOC(=O)c1ccc2nc(NC(=O)C(c3ccccc3)S(=O)(=O)O)sc2c1 (stereo not shown) [Compound L319N15-11],4.26

# Biological target: T6, CD45 (Homo sapiens, UniProt P08575)
# T6 sequence (P08575 26-1306): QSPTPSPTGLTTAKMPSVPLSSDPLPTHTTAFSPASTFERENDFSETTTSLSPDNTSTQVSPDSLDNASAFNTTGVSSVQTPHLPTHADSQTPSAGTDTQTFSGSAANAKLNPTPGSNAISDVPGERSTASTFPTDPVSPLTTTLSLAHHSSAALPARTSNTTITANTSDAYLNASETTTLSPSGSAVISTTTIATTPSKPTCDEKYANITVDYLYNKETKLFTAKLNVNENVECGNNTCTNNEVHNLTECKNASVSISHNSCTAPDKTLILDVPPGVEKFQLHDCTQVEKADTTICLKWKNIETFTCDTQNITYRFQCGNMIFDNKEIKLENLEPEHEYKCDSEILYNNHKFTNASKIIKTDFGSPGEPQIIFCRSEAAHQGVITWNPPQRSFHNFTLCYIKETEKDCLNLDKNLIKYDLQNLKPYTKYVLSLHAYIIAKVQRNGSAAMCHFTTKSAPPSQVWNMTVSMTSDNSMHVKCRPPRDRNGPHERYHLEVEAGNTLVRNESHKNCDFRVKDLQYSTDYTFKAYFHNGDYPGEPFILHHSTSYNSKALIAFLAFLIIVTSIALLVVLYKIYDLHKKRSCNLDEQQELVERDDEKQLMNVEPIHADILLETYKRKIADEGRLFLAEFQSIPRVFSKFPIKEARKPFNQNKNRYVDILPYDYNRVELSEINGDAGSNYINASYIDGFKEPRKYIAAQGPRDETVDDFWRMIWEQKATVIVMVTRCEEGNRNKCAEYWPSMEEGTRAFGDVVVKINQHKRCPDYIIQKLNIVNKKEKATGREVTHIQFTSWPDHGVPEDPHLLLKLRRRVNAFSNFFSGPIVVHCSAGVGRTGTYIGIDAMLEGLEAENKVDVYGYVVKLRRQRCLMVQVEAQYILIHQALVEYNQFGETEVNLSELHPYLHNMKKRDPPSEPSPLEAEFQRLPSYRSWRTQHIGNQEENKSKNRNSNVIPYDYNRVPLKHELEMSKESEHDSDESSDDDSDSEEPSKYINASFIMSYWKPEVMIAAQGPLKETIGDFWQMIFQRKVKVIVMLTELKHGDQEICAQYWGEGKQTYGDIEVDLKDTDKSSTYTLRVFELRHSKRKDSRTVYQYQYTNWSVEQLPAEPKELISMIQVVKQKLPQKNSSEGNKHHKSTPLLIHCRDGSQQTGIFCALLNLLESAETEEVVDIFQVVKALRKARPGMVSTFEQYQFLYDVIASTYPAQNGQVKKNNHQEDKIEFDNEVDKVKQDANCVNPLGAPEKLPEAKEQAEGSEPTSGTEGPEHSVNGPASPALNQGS
# Test: PTP inhibition assay (pNPP)
# Assay type: biochemical
# Details: pNPP at Km, pH 7.0, 25° C.
row,SMILES,pIC50
1,O=C(Nc1nccs1)C(c1ccccc1)S(=O)(=O)O (stereo not shown) [Compound L319N13],< 4.00
2,O=C(Nc1nc(-c2ccccc2)cs1)C(c1ccccc1)S(=O)(=O)O (stereo not shown) [Compound L319N14],4.15
3,CCOC(=O)c1ccc2nc(NC(=O)C(c3ccccc3)S(=O)(=O)O)sc2c1 (stereo not shown) [Compound L319N15-11],4.15

# Biological target: T7, LMWPTP (Homo sapiens, UniProt P24666)
# T7 sequence (P24666 1-158): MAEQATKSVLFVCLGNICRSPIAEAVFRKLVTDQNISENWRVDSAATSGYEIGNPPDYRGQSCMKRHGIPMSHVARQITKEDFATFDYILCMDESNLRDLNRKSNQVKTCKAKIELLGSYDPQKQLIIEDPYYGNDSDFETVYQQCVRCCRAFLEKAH
# Test: PTP inhibition assay (pNPP)
# Assay type: biochemical
# Details: […]; LMWPTP
row,SMILES,pIC50
1,O=C(O)C(c1ccc(-c2ccccc2)cc1)S(=O)(=O)O (stereo not shown) [Compound L319-16],< 4.00

# Same assay, conditions: pNPP at Km, pH 7.0, 25° C.
row,SMILES,pIC50
1,O=C(Nc1nc(-c2ccccc2)cs1)C(c1ccccc1)S(=O)(=O)O (stereo not shown) [Compound L319N14],4.70
2,O=C(Nc1nc2c(Cl)cccc2s1)C(c1ccccc1)S(=O)(=O)O (stereo not shown) [Compound L319N15-01],5.34
3,CCOC(=O)c1ccc2nc(NC(=O)C(c3ccccc3)S(=O)(=O)O)sc2c1 (stereo not shown) [Compound L319N15-11],5.52
